Assay results: patent US5639887A, “MDR reversal agents” (priority 1995, dated 1997)
Counter-ions that a name gives are not always drawn.

How the values were obtained:
[1] = test system: vincristine resistant murine leukemia P388/VCR; test: In vivo evaluation of MDR-1 reversal agents against vincristine resistant murine leukemia P388/VCR implanted IP in CDF1 mice; conditions: days 1-7, IP; for % ILS: vs vincristine alone
Description: Tumor cell ascites are harvested 5-7 days later. For drug testing, groups of 10-15 CDF1 mice (DBA/2×Balb/cF1 hybrids; Charles River Laboratories, Inc) are injected IP with 0.5 ml of diluted ascitic fluid containing 1×10^6 viable P388/VCR tumor cells. […] Drugs are administered once daily, by the IP, intravenous (IV) or oral route, starting one day after tumor implantation and using a variety of treatment schedules. Mice are weighed periodically, survival is recorded for 30 days post tumor implantation, and Mean survival times are calculated for all groups of mice. Statistical analysis of Mean survival times is carried out using the Student t-test.

[2] = test system: human epidermoid carcinoma KB/8.5; test: In vivo evaluation of MDR-1 reversal agents against human epidermoid carcinoma KB/8.5 implanted SC in athymic nude mice; design: species or system human (tumor in athymic nude mice)
Description: The multiple drug resistant human epidermoid carcinoma KB/8.5 is propagated in medium containing colchicine (10 nanograms/ml) to maintain drug resistance. Colchicine is removed from the medium, for two cell passages, prior to subcutaneous (SC) implant of 8×10^6 KB/8.5 tumor cells into athymic "nude" mice (Harlan Sprague Dawley). […] Individual mouse tumor mass and mean tumor mass for each treatment group is determined on Day +14 and Day +21 of the test period. For each treatment group, the Relative Tumor Growth, RTG, is calculated as follows: [formula]
Statistical analysis of Log Relative Tumor Growth is carried out using the Student t-test. Transformation of the data from absolute mean tumor mass (mgs tumor mass) to Log Relative Tumor Growth prior to statistical analysis has two beneficial effects:
1) it corrects the data for differences in mean tumor mass of the different treatment groups at the start of the test period (Day 0); and
2) the Log transformation of the data more adequately reflects the exponential growth pattern of the SC tumors and makes the use of the Student t-test more appropriate.

[3] = vincristine 0.2 + compound 6.3 mg/kg
[4] = vincristine 0.2 + compound 25 mg/kg
[5] = vincristine 0.2 + compound 50 mg/kg
[6] = doxorubicin 8 mg/kg IV + compound 25 mg/kg/dose SC at -2 h and +2 h
[7] = doxorubicin 8 mg/kg IV + compound 50 mg/kg/dose SC at -2 h and +2 h
[8] = doxorubicin 8 mg/kg IV + compound 100 mg/kg/dose SC at -2 h and +2 h
[9] = doxorubicin 8 mg/kg IV + compound 150 mg/kg/dose SC at -2 h and +2 h
[10] = doxorubicin 8 mg/kg IV + compound […] SC at -2 h and +2 h
[11] = doxorubicin 8 mg/kg IV + compound 200 mg/kg/dose SC at -2 h and +2 h
[12] = doxorubicin 8 mg/kg IV + compound 200 mg/kg/dose SC x2

Compound | Relative Tumor Growth Day 21 [2, 6] | Relative Tumor Growth Day 21 [2, 7] | Relative Tumor Growth Day 21 [2, 8] | Relative Tumor Growth Day 21 [2, 10] | Relative Tumor Growth Day 21 [2, 11] | also measured
COc1ccc(C(C#N)(CCN2CCc3cc(OC)c(OC)cc3C2)Sc2ccc(C)cc2)cc1OC (stereo not drawn) [Example 9, α-(3,4-Dimethoxyphenyl)-3,4-dihydro-6,7-dimethoxy-α-[(4-methylphenyl)thio]-2(1H]-isoquinolinebutanenitrile] | – | – | – | – | – | MST [1, 3]: 16.4 days; % ILS [1, 3]: +10%
COC(=O)C(CCCN1CCc2cc(OC)c(OC)cc2C1)(Sc1ccc(C)cc1)c1ccc(OC)c(OC)c1 (stereo not drawn) [Example 12, α-(3,4-Dimethoxyphenyl)-3,4-dihydro-6,7-dimethoxy-α-[(4-methylphenyl)thio]-2(1H)-isoquinolinepentanoic acid methyl ester] | – | – | – | – | – | MST [1, 4]: 16.5 days; MST [1, 5]: 16.7 days; % ILS [1, 4]: +9%; % ILS [1, 5]: +11%
COc1ccc(C(C#N)(CCCCCN2CCc3ccccc3C2)Sc2ccc(C)cc2)cc1OC (stereo not drawn) [Example 16, α-(3,4-Dimethoxyphenyl)-3,4-dihydro-α-[(4-methylphenyl)thio]-2(1H)-isoquinoline-2-heptanenitrile] | – | – | – | – | – | MST [1, 4]: 16.8 days; % ILS [1, 4]: +11%
COc1ccc(C(C#N)(CCCCCCCCN2CCc3cc(OC)c(OC)cc3C2)Sc2ccc(C)cc2)cc1OC (stereo not drawn) [Example 20, α-(3,4-Dimethoxyphenyl]-3,4-dihydro-6,7-dimethoxy-α-[(4-methylphenyl)thio]-2(1H)-isoquinolinedecanenitrile] | – | – | – | – | – | MST [1, 3]: 13.5 days; % ILS [1, 3]: +8%
COc1ccc(C(C#N)(CCCCCN2Cc3cc(OC)c(OC)cc3C2)Sc2ccc(C)cc2)cc1OC.Cl (stereo not drawn) [Example 27, α-(3,4-Dimethoxyphenyl)-1,3-dihydro-5,6-dimethoxy-α-[(4-methylphenyl)thio]-2H-isoindole-2-heptanenitrile hydrochloride] | 10.30 | 9.55 | 6.39 | 9.66 | – | Relative Tumor Growth Day 14 [2, 9]: Toxic; Relative Tumor Growth Day 21 [2, 9]: Toxic
COc1ccc(C(C#N)(CCCCCN2CCc3cc(OC)c(OCCCl)cc3C2)Sc2ccc(C)cc2)cc1OC (stereo not drawn) [Example 32, 7-(2-Chloroethoxy)-α-(3,4-dimethoxyphenyl)-3,4-dihydro 6-methoxy-α-[(4-methylphenyl)thio]-2(1H)-isoquinoline heptanenitrile] | 11.30 | – | – | 19.93 | – | –
COc1ccc(C(CCCCCN2CCc3cc4c(cc3C2)OCO4)Sc2ccc(C)cc2)cc1OC (stereo not drawn) [Example 47] | 9.73 | 16.54 | 10.09 | 17.53 | 11.04 | –
COc1ccc(C(CCCCCCN2Cc3cc(OC)c(OC)cc3C2)Sc2ccc(C)cc2)cc1OC (stereo not drawn) [Example 49, 2-[7-(3,4-Dimethoxyphenyl]-7-[(4-methylphenyl]thio]-beptyl]-2,3-dihydro-5,6-dimethoxy-1H-isotndole] | 5.04 | – | – | 6.41 | – | –
COc1ccc(C(CCCCCCN2CCc3cc(OC)c(OC)cc3C2)Sc2ccc(C)cc2)cc1OC (stereo not drawn) [Example 50, 2-[7-(3,4-Dimethoxyphenyl)-7-[(4-methylphenyl)thio]-heptyl]-1,2,3,4-tetrahydro-6,7-dimethoxyisoquinoline] | 7.86 | 8.76 | 7.08 | 10.30 | 6.87 | –
COc1ccc(CC2c3cc(OC)c(OC)cc3CCN2CCCCCC(C#N)(Sc2ccc(C)cc2)c2ccc(OC)c(OC)c2)cc1OC (stereo not drawn) [Example 55, α-(3,4-Dimethoxyphenyl)-1-[(3,4-dimethoxyphenyl)-methyl]-3,4-dihydro-6,7-dimethoxy-α-[(4-methylphenyl)-thio]-2(1H)-isoquinolineheptanenitrile] | – | 12.20 | 12.37 | – | 7.15 | –
COc1ccc(C(CCCCCN2CCc3cc(OC)c(OC)cc3C2)SC2CCCCC2)cc1OC (stereo not drawn) [Example 61, 2-[6-(Cyclohexylthio)-6-(3,4-dimethoxyphenyl)hexyl]-1,2,3,4-tetrahydro-6,7-dimethoxyisoquinoline] | – | 8.66 | 6.86 | 8.88 | – | –
COc1ccc(C(C#N)(CCCCCN2CCc3cc(OC)c(OC)cc3C2)SC2CCCCC2)cc1OC (stereo not drawn) [Example 62, α-(Cyclohexylthio)-α-(3,4-dimethoxyphenyl)-3,4-dihydro6,7-dimethoxy-2(1H)-isoquinolineheptane nitrile] | – | 9.47 | 6.08 | 10.17 | – | toxicity remark (tox), Day 14 [2, 12]: tox; toxicity remark (tox), Day 21 [2, 12]: tox
COc1ccc(C(CCCCCN2CCc3cc(OC)c(OC)cc3C2)SC(C)(C)C)cc1OC (stereo not drawn) [Example 66, 2-[6-(3,4-Dimethoxyphenyl)-6[(1,1-dimethylethyl)thio]hexyl]-1,2,3,4-tetrahydro-6,7-dimethoxyisoquinoline] | – | – | 8.17 | – | 7.07 | –
COc1ccc(C(CCCCCCN2CCc3cc(OC)c(OC)c(OC)c3C2)Sc2ccc(C)cc2)cc1OC (stereo not drawn) [Example 67, 2-[7-(3,4-Dimethoxyphenyl)-7-[(4-methylphenyl)thio]-heptyl]-1,2,3,4-tetrahydro-6,7,8-trimethoxyisoquinoline] | – | 11.52 | 7.76 | 9.81 | 8.55 | –
COc1ccc(C(CCCCCCN2CCc3cc(OC)c(OC)cc3C2)Sc2ccc(C)cc2)cc1O (stereo not drawn) [Example 72, 5-[7-(3,4-Dihydro-6,7-dimethoxy-2(1H)-isoquinolinyl)-1[(4-methylphenyl)thio]heptyl]-2-methoxyphenol] | – | – | – | 9.58 | – | –
COc1cc2c(cc1OC)CN(CCCCCCC(Sc1ccc(C)cc1)c1ccc(OC)c(OCCn3ccnc3)c1)CC2 (stereo not drawn) [Example 74] | – | – | – | – | – | Relative Tumor Growth Day 21 ([2]; doxorubicin 8 mg/kg IV + compound 25 mg/kg/dose SC at -2 h and +2 h, listed as Ex-74): 9.11; Relative Tumor Growth Day 21 ([2]; doxorubicin 8 mg/kg IV + compound 50 mg/kg/dose SC at -2 h and +2 h, listed as Ex-74): 9.18; Relative Tumor Growth Day 21 ([2]; doxorubicin 8 mg/kg IV + compound […] SC at -2 h and +2 h, listed as Ex-74): 9.00
COc1cc2c(cc1OC)CN(CCCCCCC(Sc1ccc(C)cc1)c1ccc(OC)c(OCCn3ccnc3)c1)CC2 (stereo not drawn) [Example 75, 1,2,3,4-Tetrahydro-2-[7-[3-[2-(1H-imidazol-1-yl)-ethoxy]-4-methoxyphenyl]-7-[(4-methylphenvl]thio]-heptyl-6,7-dimethoxyisoquinolinedihydrochloride] | – | – | – | – | – | Relative Tumor Growth Day 21 ([2]; doxorubicin 8 mg/kg IV + compound 25 mg/kg/dose SC at -2 h and +2 h, listed as Ex-75, dihydrochloride): 11.05; Relative Tumor Growth Day 21 ([2]; doxorubicin 8 mg/kg IV + compound 50 mg/kg/dose SC at -2 h and +2 h, listed as Ex-75, dihydrochloride): 9.12; Relative Tumor Growth Day 21 ([2]; doxorubicin 8 mg/kg IV + compound 100 mg/kg/dose SC at -2 h and +2 h, listed as Ex-75, dihydrochloride): 6.74; Relative Tumor Growth Day 21 ([2]; doxorubicin 8 mg/kg IV + compound 200 mg/kg/dose SC at -2 h and +2 h, listed as Ex-75, dihydrochloride): 7.70; Relative Tumor Growth Day 21 ([2]; doxorubicin 8 mg/kg IV + compound […] SC at -2 h and +2 h, listed as Ex-75, dihydrochloride): 14.21
CCC(CCCCCN1CCc2cc(OC)c(OC)cc2C1)(Sc1ccc(C)cc1)c1ccc(OC)c(OC)c1 (stereo not drawn) [Example 78, 2-[6-(3,4-Dimethoxyphenyl)-6-[(4-methylphenyl)thio]-octyl]-1,2,3,4-tetrahydro-6,7-dimethoxyisoquinoline] | 10.14 | – | – | 10.27 | – | –
COc1ccc(C(C#N)(CCCCCN2Cc3cc(Cl)c(Cl)cc3C2)Sc2ccc(C)cc2)cc1OC (stereo not drawn) [Example 81] | – | – | – | 9.52 | – | –
COc1cc2c(cc1OC)CN(CCCCCC(Sc1ccc(C)cc1)c1ccc3c(c1)OCO3)CC2 (stereo not drawn) [Example 89] | 8.02 | 9.40 | 11.04 | 10.70 | 6.04 | –
COc1cc2c(cc1OC)CN(CCCCCC(Sc1ccc(C)cc1)c1ccc(OC(F)(F)F)cc1)CC2 (stereo not drawn) [Example 92, 1,2,3,4-Tetrahydro-6,7-dimethoxy-2-[6-[(4-methyl-phenyl]thio]-6-[trifluoromethoxy)phenyl]hexylisoquinoline] | 12.05 | 11.75 | 10.48 | 12.75 | 8.71 | –
